In the supplement of paper PMC11424490:

Tests used:
[1] = test system: NCI-H2122; test: combination cScore with adagrasib (Bliss gap around IC50) (%PoC); higher = stronger additive effect
Summary of the method: (§1)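 The score averages the gap between expected and measured viability under Bliss independence, taken over a field around the IC50 of each single agent or, where an IC50 was not reached, at the highest concentrations. Viability came from CellTiter-Glo luminescence, normalised to vehicle wells as percent of control and fitted with four-parameter curves. NCI-H2122, NCI-H358 and SW837 cells were dosed in concentration matrices 24 h after seeding and grown for 72 h, or 144 h for SW837.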

[2] = test system: SW837; test: as above
Summary of the method: as §1

Row | SMILES | combination cScore with adagrasib [1] | combination cScore with adagrasib [2]
1 | Cc1ccc(NC(=O)c2ccc(CN3CCN(C)CC3)cc2)cc1Nc1nc(-c2cccnc2)cs1 [Masitinib] + C=C(F)C(=O)N1CCN(c2nc(OC[C@@H]3CCCN3C)nc3c2CCN(c2cccc4cccc(Cl)c24)C3)C[C@@H]1CC#N [adagrasib] | 5.2 | -2.55
2 | C[C@H](Cc1ccc(O)c(O)c1)[C@@H](C)Cc1ccc(O)c(O)c1 [Masoprocol] + C=C(F)C(=O)N1CCN(c2nc(OC[C@@H]3CCCN3C)nc3c2CCN(c2cccc4cccc(Cl)c24)C3)C[C@@H]1CC#N [adagrasib] | 1.34 | -3.46
3 | N[C@@H](Cc1ccc(N(CCCl)CCCl)cc1)C(=O)O [Melphalan] + C=C(F)C(=O)N1CCN(c2nc(OC[C@@H]3CCCN3C)nc3c2CCN(c2cccc4cccc(Cl)c24)C3)C[C@@H]1CC#N [adagrasib] | 3.55 | -0.68
4 | CN(C)C(=N)NC(=N)N [Metformin] + C=C(F)C(=O)N1CCN(c2nc(OC[C@@H]3CCCN3C)nc3c2CCN(c2cccc4cccc(Cl)c24)C3)C[C@@H]1CC#N [adagrasib] | -8.41 | 1.92
5 | CN(Cc1cnc2nc(N)nc(N)c2n1)c1ccc(C(=O)N[C@@H](CCC(=O)O)C(=O)O)cc1 [Methotrexate] + C=C(F)C(=O)N1CCN(c2nc(OC[C@@H]3CCCN3C)nc3c2CCN(c2cccc4cccc(Cl)c24)C3)C[C@@H]1CC#N [adagrasib] | -2.65 | -8.99
6 | CO[C@@]12[C@H](COC(N)=O)C3=C(C(=O)C(C)=C(N)C3=O)N1C[C@@H]1N[C@@H]12 [Mitomycin C] + C=C(F)C(=O)N1CCN(c2nc(OC[C@@H]3CCCN3C)nc3c2CCN(c2cccc4cccc(Cl)c24)C3)C[C@@H]1CC#N [adagrasib] | 0.77 | -3.24
7 | CCc1cccc(CC)c1NC(=O)c1nn(C)c2c1CCc1cnc(Nc3ccc(C(=O)NC4CCN(C)CC4)cc3OC(F)(F)F)nc1-2 [NMS-P715] + C=C(F)C(=O)N1CCN(c2nc(OC[C@@H]3CCCN3C)nc3c2CCN(c2cccc4cccc(Cl)c24)C3)C[C@@H]1CC#N [adagrasib] | -2.37 | 2.41
8 | O=c1cc(N2CCOCC2)oc2c(-c3cccc4c3sc3ccccc34)cccc12 [NU-7441] + C=C(F)C(=O)N1CCN(c2nc(OC[C@@H]3CCCN3C)nc3c2CCN(c2cccc4cccc(Cl)c24)C3)C[C@@H]1CC#N [adagrasib] | 6.81 | 11.6
9 | Cn1c(=O)n(-c2ccc(C(C)(C)C#N)cc2)c2c3cc(-c4cnc5ccccc5c4)ccc3ncc21 [NVP-BEZ235] + C=C(F)C(=O)N1CCN(c2nc(OC[C@@H]3CCCN3C)nc3c2CCN(c2cccc4cccc(Cl)c24)C3)C[C@@H]1CC#N [adagrasib] | 3.55 | 6.19
10 | Cc1cn(-c2cc(NC(=O)c3ccc(C)c(Nc4nccc(-c5cccnc5)n4)c3)cc(C(F)(F)F)c2)cn1 [Nilotinib] + C=C(F)C(=O)N1CCN(c2nc(OC[C@@H]3CCCN3C)nc3c2CCN(c2cccc4cccc(Cl)c24)C3)C[C@@H]1CC#N [adagrasib] | 10.6 | 9.6
11 | COC(=O)c1ccc2c(c1)NC(=O)/C2=C(\Nc1ccc(N(C)C(=O)CN2CCN(C)CC2)cc1)c1ccccc1 [Nintedanib] + C=C(F)C(=O)N1CCN(c2nc(OC[C@@H]3CCCN3C)nc3c2CCN(c2cccc4cccc(Cl)c24)C3)C[C@@H]1CC#N [adagrasib] | 7.6 | 4.49
12 | CN1CCN(c2ccc(-c3cccc(CN4CCOCC4)c3)cc2NC(=O)c2c[nH]c(=O)cc2C(F)(F)F)CC1 [OICR-9429] + C=C(F)C(=O)N1CCN(c2nc(OC[C@@H]3CCCN3C)nc3c2CCN(c2cccc4cccc(Cl)c24)C3)C[C@@H]1CC#N [adagrasib] | -2.61 | 8.92
13 | N[C@H]1CC[C@H](N[C@@H]2C[C@H]2c2ccccc2)CC1 [ORY-1001] + C=C(F)C(=O)N1CCN(c2nc(OC[C@@H]3CCCN3C)nc3c2CCN(c2cccc4cccc(Cl)c24)C3)C[C@@H]1CC#N [adagrasib] | -4.53 | 2.12
14 | O=C(O)C(=O)O.[NH-][C@@H]1CCCC[C@H]1[NH-].[Pt+2] [Oxaliplatin] + C=C(F)C(=O)N1CCN(c2nc(OC[C@@H]3CCCN3C)nc3c2CCN(c2cccc4cccc(Cl)c24)C3)C[C@@H]1CC#N [adagrasib] | 5.21 | -1.13
15 | CC(=O)O[C@H]1C(=O)[C@@]2(C)[C@H]([C@H](OC(=O)c3ccccc3)[C@]3(O)C[C@H](OC(=O)[C@H](O)[C@@H](NC(=O)c4ccccc4)c4ccccc4)C(C)=C1C3(C)C)[C@]1(OC(C)=O)CO[C@@H]1C[C@@H]2O [Paclitaxel] + C=C(F)C(=O)N1CCN(c2nc(OC[C@@H]3CCCN3C)nc3c2CCN(c2cccc4cccc(Cl)c24)C3)C[C@@H]1CC#N [adagrasib] | 0.85 | 2.18
16 | Cc1[nH]c2ccccc2c1CCNCc1ccc(/C=C/C(=O)NO)cc1 [Panobinostat] + C=C(F)C(=O)N1CCN(c2nc(OC[C@@H]3CCCN3C)nc3c2CCN(c2cccc4cccc(Cl)c24)C3)C[C@@H]1CC#N [adagrasib] | 2.38 | 5.72
17 | Cc1ccc(Nc2nccc(N(C)c3ccc4c(C)n(C)nc4c3)n2)cc1S(N)(=O)=O [Pazopanib] + C=C(F)C(=O)N1CCN(c2nc(OC[C@@H]3CCCN3C)nc3c2CCN(c2cccc4cccc(Cl)c24)C3)C[C@@H]1CC#N [adagrasib] | -6.25 | -7.8
18 | Nc1nc2[nH]cc(CCc3ccc(C(=O)N[C@@H](CCC(=O)O)C(=O)O)cc3)c2c(=O)[nH]1 [Pemetrexed] + C=C(F)C(=O)N1CCN(c2nc(OC[C@@H]3CCCN3C)nc3c2CCN(c2cccc4cccc(Cl)c24)C3)C[C@@H]1CC#N [adagrasib] | 2.77 | 5.08
19 | CC(C)(C)c1cc(NC(=O)Nc2ccc(-c3cn4c(n3)sc3cc(OCCN5CCOCC5)ccc34)cc2)no1 [Quizartinib] + C=C(F)C(=O)N1CCN(c2nc(OC[C@@H]3CCCN3C)nc3c2CCN(c2cccc4cccc(Cl)c24)C3)C[C@@H]1CC#N [adagrasib] | -3.38 | 0.28
20 | Cc1ncc(NC(=O)c2cccc(C(F)(F)F)c2)cc1-c1cnc(OC2CCOCC2)c(N2CCOCC2)c1 [RAF-709] + C=C(F)C(=O)N1CCN(c2nc(OC[C@@H]3CCCN3C)nc3c2CCN(c2cccc4cccc(Cl)c24)C3)C[C@@H]1CC#N [adagrasib] | 7.22 | 4.87
21 | CO[C@H]1C[C@@H]2CC[C@@H](C)[C@@](O)(O2)C(=O)C(=O)N2CCCC[C@H]2C(=O)O[C@H]([C@H](C)C[C@@H]2CC[C@@H](O)[C@H](OC)C2)CC(=O)[C@H](C)/C=C(\C)[C@@H](O)[C@@H](OC)C(=O)[C@H](C)C[C@H](C)/C=C/C=C/C=C/1C [Rapamycin] + C=C(F)C(=O)N1CCN(c2nc(OC[C@@H]3CCCN3C)nc3c2CCN(c2cccc4cccc(Cl)c24)C3)C[C@@H]1CC#N [adagrasib] | 4.11 | 6.52
22 | CNC(=O)c1cc(Oc2ccc(NC(=O)Nc3ccc(Cl)c(C(F)(F)F)c3)c(F)c2)ccn1 [Regorafenib] + C=C(F)C(=O)N1CCN(c2nc(OC[C@@H]3CCCN3C)nc3c2CCN(c2cccc4cccc(Cl)c24)C3)C[C@@H]1CC#N [adagrasib] | -3.41 | -1.71
23 | COc1cc(OC)c(/C=C/S(=O)(=O)Cc2ccc(OC)c(NCC(=O)O)c2)c(OC)c1 [Rigosertib] + C=C(F)C(=O)N1CCN(c2nc(OC[C@@H]3CCCN3C)nc3c2CCN(c2cccc4cccc(Cl)c24)C3)C[C@@H]1CC#N [adagrasib] | 1.67 | 7.78
24 | C/C=C1\NC(=O)[C@H]2CSSCC/C=C/[C@H](CC(=O)N[C@H](C(C)C)C(=O)N2)OC(=O)[C@H](C(C)C)NC1=O [Romidepsin] + C=C(F)C(=O)N1CCN(c2nc(OC[C@@H]3CCCN3C)nc3c2CCN(c2cccc4cccc(Cl)c24)C3)C[C@@H]1CC#N [adagrasib] | -1.65 | 6.42
25 | N#CC[C@H](C1CCCC1)n1cc(-c2ncnc3[nH]ccc23)cn1 [Ruxolitinib] + C=C(F)C(=O)N1CCN(c2nc(OC[C@@H]3CCCN3C)nc3c2CCN(c2cccc4cccc(Cl)c24)C3)C[C@@H]1CC#N [adagrasib] | -2.1 | 0.75
26 | CC(C)(C)c1ccc(S(=O)(=O)NCc2ccc(C(=O)Nc3cccnc3)cc2)cc1 [STF-31] + C=C(F)C(=O)N1CCN(c2nc(OC[C@@H]3CCCN3C)nc3c2CCN(c2cccc4cccc(Cl)c24)C3)C[C@@H]1CC#N [adagrasib] | -2.08 | 10.7
27 | CNC(=O)c1cc(Oc2ccc(NC(=O)Nc3ccc(Cl)c(C(F)(F)F)c3)cc2)ccn1 [Sorafenib] + C=C(F)C(=O)N1CCN(c2nc(OC[C@@H]3CCCN3C)nc3c2CCN(c2cccc4cccc(Cl)c24)C3)C[C@@H]1CC#N [adagrasib] | -6.98 | -4.84
28 | CCN(CC)CCNC(=O)c1c(C)[nH]c(/C=C2\C(=O)Nc3ccc(F)cc32)c1C [Sunitinib] + C=C(F)C(=O)N1CCN(c2nc(OC[C@@H]3CCCN3C)nc3c2CCN(c2cccc4cccc(Cl)c24)C3)C[C@@H]1CC#N [adagrasib] | 1.03 | 4.56
